This note sets out measurements from publication PMC6934184, “Selective DNA-PKcs inhibition extends the therapeutic index of localized radiotherapy and chemotherapy” (The Journal of Clinical Investigation, 2019).

SMILES strings stand for the structures.

The test has as its target T1, KIT V559D T670I (Homo sapiens, UniProt P10721, T670I/V559D).
T1 construct: purchased Thermo Fisher Scientific (Life Technologies) SelectScreen
In words: SelectScreen LanthaScreen. The class given is binding. Conditions: read-out: % displacement. The gist of the method:
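NU5455 was profiled across the SelectScreen Broad panel of kinase activity and binding assays. Z'LYTE reactions such as CSF1R ran at apparent Km ATP, while the Adapta CAMK1 assay used ATP listed as 10. Values are given as percent.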

T1 sequence (P10721 26-976 V559D/T670I): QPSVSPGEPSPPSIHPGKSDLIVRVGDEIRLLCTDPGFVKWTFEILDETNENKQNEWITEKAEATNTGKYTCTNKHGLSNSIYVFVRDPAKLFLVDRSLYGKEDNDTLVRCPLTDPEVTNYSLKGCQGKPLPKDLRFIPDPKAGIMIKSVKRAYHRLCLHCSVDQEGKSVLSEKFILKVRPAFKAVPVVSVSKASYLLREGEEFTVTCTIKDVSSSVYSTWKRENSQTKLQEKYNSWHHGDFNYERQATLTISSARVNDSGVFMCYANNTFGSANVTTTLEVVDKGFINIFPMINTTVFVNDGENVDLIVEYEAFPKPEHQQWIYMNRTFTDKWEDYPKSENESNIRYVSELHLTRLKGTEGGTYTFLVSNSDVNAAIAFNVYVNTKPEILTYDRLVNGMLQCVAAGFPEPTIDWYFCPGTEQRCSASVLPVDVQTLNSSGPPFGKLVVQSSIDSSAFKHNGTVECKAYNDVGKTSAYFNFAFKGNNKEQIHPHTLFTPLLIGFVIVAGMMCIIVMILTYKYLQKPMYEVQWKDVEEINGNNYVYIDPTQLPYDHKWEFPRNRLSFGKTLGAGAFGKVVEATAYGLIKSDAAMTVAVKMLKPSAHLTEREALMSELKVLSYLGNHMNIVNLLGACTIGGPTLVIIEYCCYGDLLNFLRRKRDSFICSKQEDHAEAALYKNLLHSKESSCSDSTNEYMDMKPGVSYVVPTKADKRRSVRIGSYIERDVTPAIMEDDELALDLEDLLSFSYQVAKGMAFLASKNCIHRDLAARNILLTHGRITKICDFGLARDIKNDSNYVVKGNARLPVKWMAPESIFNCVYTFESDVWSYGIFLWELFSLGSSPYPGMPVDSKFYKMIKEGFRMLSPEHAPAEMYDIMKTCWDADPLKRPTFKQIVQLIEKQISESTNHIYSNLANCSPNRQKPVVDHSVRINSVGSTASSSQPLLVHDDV

As for `CN(C(=O)CN1CCOCC1)c1ccc2sc3c(-c4cccc5c(=O)cc(N6CC7CCC(C6)O7)oc45)cccc3c2c1` [NU5455], the inhibition at 1 µM was found to be 3.1%.
